By log P is commonly meant the decadic logarithm of the partition coefficient of the neutral form, usually between octanol and water.

Bounds are passed on as bounds.

Test in the first data set: not given
As to conditions: cited from earlier work.
Consider `CCCSc1ccc2nc(NC(=O)OC)[nH]c2c1` [albendazole], for which the “log P” value is 3.22.

The data set is the same for the next values; noted with them: octanol/water partition coefficient; cited from earlier work.
As for `CC(C)(Oc1ccc(CCNC(=O)c2ccc(Cl)cc2)cc1)C(=O)O` [bezafibrate], the “log P” value is reported as 3.53.

For `Cc1c([N+](=O)[O-])cc(C(C)(C)C)c(O)c1C(=O)Nc1ccc(Br)cc1C(F)(F)F` [bromoxanide], the “log P” value was 5.65.

As for `CC(=O)Oc1c(Br)cc(Cl)cc1C(=S)Nc1ccc(Br)cc1` [brotianide], the “log P” value is listed as 5.30.

Regarding `CCN(CC)C(=O)Nc1ccc(OCC(O)CNC(C)(C)C)c(C(C)=O)c1` (centres unmarked) [celiprolol], the “log P” value is listed as 2.07.

On to `CC(C)(Oc1ccc(C2CC2(Cl)Cl)cc1)C(=O)O` (centres unmarked) [ciprofibrate], for which the “log P” value is on record as 3.15.

With `CC(=O)Oc1c(I)cc(I)cc1C(=O)Nc1ccc(Cl)cc1` [clioxanide], the “log P” value is 5.45.

Take `CCOC(=O)C(C)(C)Oc1ccc(Cl)cc1` [clofibrate]: the “log P” value is 3.65.

For `Cc1cc(C(C#N)c2ccc(Cl)cc2)c(Cl)cc1NC(=O)c1cc(I)cc(I)c1O` (centres unmarked) [closantel], the “log P” value is given as > 7.

Take `O=C(Nc1ccc(Br)cc1)c1cc(Br)ccc1O` [dibromosalan]: the “log P” value is given as 5.18.

Take `Cc1c2ccncc2c(C)c2c1[nH]c1ccccc12` [ellipticine]: the “log P” value is listed as 4.80.

As for `COC(=O)Nc1nc2ccc(Sc3ccccc3)cc2[nH]1` [fenbendazole], the “log P” value is 4.26.

As to `CC(C)C(=O)Nc1ccc([N+](=O)[O-])c(C(F)(F)F)c1` [flutamide], the “log P” value is recorded as 3.5.

With `Cc1ccc(C)c(OCCCC(C)(C)C(=O)O)c1` [gemfibrozil], the “log P” value is reported as 3.90.

For the compound `CCC(C)n1ncn(-c2ccc(N3CCN(c4ccc(OCC5COC(Cn6cncn6)(c6ccc(Cl)cc6Cl)O5)cc4)CC3)cc2)c1=O` (centres unmarked) [itraconazole], the “log P” value is listed as 5.68.

With `CO[C@@H]1[C@@H](O[C@@H]2O[C@H](C)[C@@H](O[C@H]3C[C@@](C)(O)[C@@H](OC(=O)CC(C)C)[C@H](C)O3)[C@H](N(C)C)[C@H]2O)[C@@H](CC=O)C[C@@H](C)[C@@H](O)/C=C/C=C/C[C@@H](C)OC(=O)C[C@H]1OC(C)=O` [josamycin], the “log P” value is 2.39.

As to `CC[C@H](C)C(=O)O[C@H]1C[C@@H](C)C=C2C=C[C@H](C)[C@H](CC[C@@H]3C[C@@H](O)CC(=O)O3)[C@H]21` [lovastatin], the log partition coefficient (log P) is listed as 4.04.

`COC(=O)Nc1nc2ccc(C(=O)c3ccccc3)cc2[nH]1` [mebendazole]: the “log P” value was 3.10.

Take `Cc1cccc(Nc2ccccc2C(=O)O)c1C` [mefenamic acid]: the “log P” value was 5.3.

In the case of `OC(c1cc(C(F)(F)F)nc2c(C(F)(F)F)cccc12)C1CCCCN1` (centres unmarked) [mefloquin], the “log P” value is on record as 3.36.

Regarding `CC1=CC(=O)c2ccccc2C1=O` [menadione], the “log P” value was 8.

With `CC[C@H](C)C(=O)O[C@H]1CCC=C2C=C[C@H](C)[C@H](CC[C@@H]3C[C@@H](O)CC(=O)O3)[C@H]21` [mevastatin], the log partition coefficient (log P) is 3.52.

`CCOC(=O)C1=C(C)NC(C)=C(C(=O)OC)C1c1cccc([N+](=O)[O-])c1` (centres unmarked) [nitrendipine]: the “log P” value is listed as 3.7.

For `Cc1nccn1CC1CCc2c(c3ccccc3n2C)C1=O` (centres unmarked) [ondansetron], the “log P” value was 2.63.

Turning to `O=C(Nc1cc(Cl)cc(Cl)c1O)c1c(O)c(Cl)cc(Cl)c1Cl` [oxyclozanide], the “log P” value was 5.35.

In the case of `O=C1c2ccccc2C(=O)C1c1ccccc1` [phenyl indanedione], the “log P” value is listed as 2.90.

As for `O=C(Nc1ccc(Oc2ccc(Cl)cc2)c(Cl)c1)c1cc(I)cc(I)c1O` [rafoxanide], the “log P” value was 8.75.

As for `CC1=C(/C=C/C(C)=C/C=C/C(C)=C/CO)C(C)(C)CCC1` [retinol], the lipophilicity (log P) is 5.68.

Turning to `CC[C@H]1OC(=O)[C@H](C)[C@@H](O[C@H]2C[C@@](C)(OC)[C@@H](O)[C@H](C)O2)[C@H](C)[C@@H](O[C@@H]2O[C@H](C)C[C@H](N(C)C)[C@H]2O)[C@](C)(O)C[C@@H](C)/C(=N\OCOCCOC)[C@H](C)[C@@H](O)[C@]1(C)O` [roxithromycin], the “log P” value is recorded as ~2.5.

For `CCCc1nc2c(C)cc(-c3nc4ccccc4n3C)cc2n1Cc1ccc(-c2ccccc2C(=O)O)cc1` [telmisartan], the “log P” value is on record as 4.8.

As to `CN(C/C=C/C#CC(C)(C)C)Cc1cccc2ccccc12` [terbinafin], the “log P” value is listed as 5.42.

Turning to `CC(C)(C)c1ccc(C(O)CCCN2CCC(C(O)(c3ccccc3)c3ccccc3)CC2)cc1` (centres unmarked) [terfenadine], the “log P” value is reported as 3.22.

In the case of `c1ccc2[nH]c(-c3cscn3)nc2c1` [tiabendazole], the “log P” value is 2.31.

`OCCSCCCCCCCCCCSCCO` [tiadenol]: the “log P” value is recorded as 4.58.

Consider `O=C(Nc1ccc(Br)cc1)c1cc(Br)cc(Br)c1O` [tribromosalan], for which the “log P” value is 5.86.

Regarding `CSc1nc2cc(Cl)c(Oc3cccc(Cl)c3Cl)cc2[nH]1` [triclabendazole], the log partition coefficient (log P) is 6.45.

As to `COC(=O)[C@@H]1[C@H]2C[C@H]3c4[nH]c5ccccc5c4CCN3C[C@@H]2CC[C@@H]1O` [yohimbine], the “log P” value was 2.73.

Test in the next data set: not given
To be noted: cited from earlier work. This is another data set of the same source.
For the compound `CC(=O)O[C@@]12CO[C@@H]1C[C@H](O)[C@@]1(C)C(=O)[C@H](O)C3=C(C)[C@@H](OC(=O)[C@H](O)[C@@H](NC(=O)OC(C)(C)C)c4ccccc4)C[C@@](O)([C@@H](OC(=O)c4ccccc4)[C@H]21)C3(C)C` [docetaxel], the “solubility in water” value is listed as “insoluble in water”.

With `CC(=O)O[C@H]1C(=O)[C@@]2(C)[C@H]([C@H](OC(=O)c3ccccc3)[C@]3(O)C[C@H](OC(=O)[C@H](O)[C@@H](NC(=O)c4ccccc4)c4ccccc4)C(C)=C1C3(C)C)[C@]1(OC(C)=O)CO[C@@H]1C[C@@H]2O` [paclitaxel], the “solubility in water” value was “insoluble in water”.

For the compound ivermectin, the “solubility in water” value is listed as “practically insoluble in water”.

Test in the next data set: not given
As to conditions: chloroform/water; cited from earlier work.
Regarding ivermectin, the “partition coefficient chloroform/water: log P” value is reported as 3.

Still in this data set, the particulars now being: ethyl acetate/water; cited from earlier work.
For the compound ivermectin, the “partition coefficient ethyl acetate/water: log P” value was 4.

The next data set is described as follows: dissolution trials: solubility of the active principle in the cosurfactant. It counts as physicochemical. As to conditions: cosurfactant Capryol.
For the compound `CC(=O)[C@H]1CC[C@H]2[C@@H]3CCC4=CC(=O)CC[C@]4(C)[C@H]3CC[C@]12C` [progesterone], the “solubility in propylene glycol monocaprylate (Capryol)” value stood at 5%.

Staying with this data set, now noted: cosurfactant Transcutol.
For the compound `CC1=C(/C=C/C(C)=C/C=C/C(C)=C\C(=O)O)C(C)(C)CCC1` [isotretinoin, 13-cis-retinoic acid], the “solubility in monoethyl ether of diethylene glycol (Transcutol)” value is listed as 3%.

Source of the values: patent publication US20040052824A1, “Micellar colloidal pharmaceutical composition containing a lipophilic active principle” (priority 2000, published 2004).
